The text below walks through data of patent US20240109865A1, “INDAZOLE COMPOUNDS AS KINASE INHIBITORS” (TYRA BIOSCIENCES, INC., priority 2020, published 2024).

Structures can show the parent of a compound that is named as a salt.

The target in assay [1] is FGFR3-BAIAP2L1 Ba/F3 cells (Homo sapiens, UniProt P22607). The experiment in a line: Ba/F3 cell viability assay (CellTiter-Glo 2.0), FGFR3-BAIAP2L1 Ba/F3. Format: cell-based. Conditions: for Ba/F3 FGFR1/FGFR3 Selectivity: FGFR3 > FGFR1 selectivity ratio in Ba/F3 FGFR fusion cell based assays; for IC50: read-out: Ba/F3 Cells FGFR3 (IC50 nM), FGFR3-BAIAP2L1 Ba/F3 cells, 48 hours, Cell Titer Glo 2.0. The procedure, abridged: (§1)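 IL3-independent Ba/F3 lines driven by FGFR1-BCR or FGFR3-BAIAP2L1 fusions, in RPMI1640/10% FBS. 9-dose 10-fold series from 30 μM, triplicate, 48 h at 37 °C; viability by CellTiter-Glo 2.0 ATP luminescence relative to DMSO control, IC50 from 4-parameter sigmoidal fit.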
FGFR3-BAIAP2L1 Ba/F3 cells, sequence (P22607 23-806 limits assumed, change not shown): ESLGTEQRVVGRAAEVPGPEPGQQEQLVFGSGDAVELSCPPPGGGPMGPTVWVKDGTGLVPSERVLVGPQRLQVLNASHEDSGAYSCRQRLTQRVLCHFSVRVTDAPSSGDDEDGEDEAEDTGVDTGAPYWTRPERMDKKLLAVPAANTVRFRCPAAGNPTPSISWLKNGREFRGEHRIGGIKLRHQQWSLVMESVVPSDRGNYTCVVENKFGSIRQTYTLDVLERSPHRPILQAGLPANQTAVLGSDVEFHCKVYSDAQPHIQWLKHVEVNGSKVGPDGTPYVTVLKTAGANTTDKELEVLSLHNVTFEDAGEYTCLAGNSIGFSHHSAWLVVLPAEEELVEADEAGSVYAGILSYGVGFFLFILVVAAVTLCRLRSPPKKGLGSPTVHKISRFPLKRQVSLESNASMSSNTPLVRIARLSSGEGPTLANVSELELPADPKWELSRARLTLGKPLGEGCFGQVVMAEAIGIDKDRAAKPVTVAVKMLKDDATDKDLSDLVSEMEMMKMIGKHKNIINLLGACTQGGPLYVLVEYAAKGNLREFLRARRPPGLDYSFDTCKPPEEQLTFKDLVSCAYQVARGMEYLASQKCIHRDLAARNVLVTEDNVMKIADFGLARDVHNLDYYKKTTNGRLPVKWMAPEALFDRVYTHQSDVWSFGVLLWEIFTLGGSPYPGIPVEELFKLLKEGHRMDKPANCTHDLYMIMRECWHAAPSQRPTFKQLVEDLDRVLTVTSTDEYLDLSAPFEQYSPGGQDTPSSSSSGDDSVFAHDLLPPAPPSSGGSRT

In assay [2] the test system is UM-UC-14 cells (FGFR3(S249C)). The experiment in a line: UM-UC-14 cancer cell line cell viability assay (CellTiter-Glo 2.0). Format: cell-based. As to conditions: UMUC14, 72 hours, Cell Titer Glo 2.0. An excerpt:
Experimental Purpose: To detect the change of intracellular ATP by Cell Titer-Glo® and to evaluate the inhibitory effect of the compounds on cancer cell lines by determining the in vitro IC50 value of the compounds.
Cell Titer-Glo® 2.0 Luminescent cell viability assay reagent was purchased from Promega (Madison, WI). RT112/84 and KG-1 cell lines were purchased from American Type Culture Collection (Manassas, VA). UM-UC-14 cell line was purchased from Sigma (St. Louis, MO). RT112/84, UM-UC-14, and KG-1 cells were cultured in RPMI1640 media supplemented with 10% fetal bovine serum. Cultures were maintained at 37° C. in a humidified atmosphere of 5% C02 and 95% air.
Cell Viability Assay Procedure: Cells were plated in 96-well clear bottom/white plates (Corning #3903) at 10,000 cells/well in 100 μl of media, incubated overnight. The next day, test compound DMSO stock solutions were made at 10 mM and 2 μM final concentration. Compounds were then added to cells in a 9-dose, 10-fold dilution series starting at 30 μM with an HP 300e Digital Dispenser (each dose was applied in triplicate). DMSO was backfilled to each well up to 301 nL total volume of test compound+DMSO, and a total of 301 nL DMSO was added to a control/no test compound well in triplicate. The cells in cell culture plates were incubated with the compounds at 37° C. and 5% C02 for 72 hours. Then 50 μl of Cell Titer Glo 2.0 reagent was added to each well of the cell culture plates. The contents were covered from light and mixed on an orbital shaker at room temperature for 10 min. Luminescence was recorded by a Synergy H1 Microplate Reader (Biotek, Winooski, VT). Cells were assessed as a percentage of DMSO only treated control cells. Curves were plotted and IC50 values were calculated using the GraphPad Prism 8 program based on a sigmoidal dose-response equation (4 parameter).

The target in another assay is FGFR1 (Homo sapiens (Human), UniProt P11362). The experiment in a line: Kinase assay, binding constants (Kd), kinase-tagged T7 phage, qPCR. The procedure, abridged: (§2)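 Competition binding: T7 phage-tagged kinase + biotin-ligand beads + compound (11 pts, 3-fold, 0.9% DMSO). Elution 30 min RT with free ligand; qPCR quantitation. Kd via Hill fit, slope −1.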
FGFR1, sequence (P11362 22-822): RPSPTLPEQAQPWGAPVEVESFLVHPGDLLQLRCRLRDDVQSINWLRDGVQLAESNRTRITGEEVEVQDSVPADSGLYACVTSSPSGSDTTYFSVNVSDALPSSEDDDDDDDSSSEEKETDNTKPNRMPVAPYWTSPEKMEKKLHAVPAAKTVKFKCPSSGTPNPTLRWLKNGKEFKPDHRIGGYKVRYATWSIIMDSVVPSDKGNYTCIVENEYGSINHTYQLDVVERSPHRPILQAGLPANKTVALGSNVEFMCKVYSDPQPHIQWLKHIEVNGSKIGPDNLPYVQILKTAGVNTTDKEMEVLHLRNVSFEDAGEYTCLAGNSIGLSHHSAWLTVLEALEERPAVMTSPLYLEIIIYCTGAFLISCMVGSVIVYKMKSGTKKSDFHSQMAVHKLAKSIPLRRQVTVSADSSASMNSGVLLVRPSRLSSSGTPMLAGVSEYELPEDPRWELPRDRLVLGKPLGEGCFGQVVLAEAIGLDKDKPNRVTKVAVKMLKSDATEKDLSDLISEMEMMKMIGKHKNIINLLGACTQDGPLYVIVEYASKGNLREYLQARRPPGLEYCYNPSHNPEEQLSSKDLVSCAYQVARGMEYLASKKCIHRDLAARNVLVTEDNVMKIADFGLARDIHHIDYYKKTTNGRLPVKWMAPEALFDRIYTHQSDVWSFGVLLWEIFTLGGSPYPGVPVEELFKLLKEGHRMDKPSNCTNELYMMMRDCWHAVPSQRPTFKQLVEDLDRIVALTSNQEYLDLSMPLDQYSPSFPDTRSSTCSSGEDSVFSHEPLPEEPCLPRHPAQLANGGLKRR
Another assay concerns the target FGFR3 (V555M) (Homo sapiens (Human), UniProt P22607, V555M). The assay is described as above. Conditions: V555M mutant. The procedure, abridged: as §2
Another assay concerns the target FGFR3 (Homo sapiens (Human), UniProt P22607). The assay is described as above. The procedure, abridged: as §2
Another assay concerns the target FGFR2 (Homo sapiens (Human), UniProt P21802). The description is as above. The method, boiled down: as §2
The next assay addresses FGFR4 (Homo sapiens (Human), UniProt P22455). The assay is described as above. The procedure, abridged:
as §2

The subject of assay [3] is RT112/84 cells (FGFR3-fusion). Description: RT112/84 cancer cell line cell viability assay (CellTiter-Glo 2.0). Format: cell-based. As to conditions: Homo sapiens, 72 hours, Cell Titer Glo 2.0. The method, boiled down:
(§3)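 RT112/84, UM-UC-14 and KG-1 cells (10,000/well, RPMI1640 with 10% FBS) were treated with a 9-dose, 10-fold series starting at 30 μM, in triplicate, for 72 h at 37 °C. ATP was read by CellTiter-Glo 2.0 luminescence relative to DMSO controls, and IC50 was fitted with a 4-parameter sigmoidal model.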

Assay [4] has as its system KG-1 cells (FGFR1-fusion). The experiment in a line: KG-1 cancer cell line cell viability assay (CellTiter-Glo 2.0). Format: cell-based. As to conditions: Homo sapiens, 72 hours, Cell Titer Glo 2.0. The procedure, abridged:
as §3

For the next assay, the target named is FGFR1-BCR Ba/F3 cells (Homo sapiens, UniProt P11362). Description: Ba/F3 cell viability assay (CellTiter-Glo 2.0), FGFR1-BCR Ba/F3. Format: cell-based. As to conditions: read-out: Ba/F3 Cells FGFR1 (IC50 nM), 48 hours, Cell Titer Glo 2.0. The procedure, abridged: as §1
FGFR1-BCR Ba/F3 cells, sequence (P11362 22-822 limits assumed, change not shown): as the sequence (P11362 22-822) above

FGFR3, sequence (P22607 23-806): as the sequence (P22607 23-806 limits assumed, change not shown) above
FGFR2, sequence (P21802 22-821): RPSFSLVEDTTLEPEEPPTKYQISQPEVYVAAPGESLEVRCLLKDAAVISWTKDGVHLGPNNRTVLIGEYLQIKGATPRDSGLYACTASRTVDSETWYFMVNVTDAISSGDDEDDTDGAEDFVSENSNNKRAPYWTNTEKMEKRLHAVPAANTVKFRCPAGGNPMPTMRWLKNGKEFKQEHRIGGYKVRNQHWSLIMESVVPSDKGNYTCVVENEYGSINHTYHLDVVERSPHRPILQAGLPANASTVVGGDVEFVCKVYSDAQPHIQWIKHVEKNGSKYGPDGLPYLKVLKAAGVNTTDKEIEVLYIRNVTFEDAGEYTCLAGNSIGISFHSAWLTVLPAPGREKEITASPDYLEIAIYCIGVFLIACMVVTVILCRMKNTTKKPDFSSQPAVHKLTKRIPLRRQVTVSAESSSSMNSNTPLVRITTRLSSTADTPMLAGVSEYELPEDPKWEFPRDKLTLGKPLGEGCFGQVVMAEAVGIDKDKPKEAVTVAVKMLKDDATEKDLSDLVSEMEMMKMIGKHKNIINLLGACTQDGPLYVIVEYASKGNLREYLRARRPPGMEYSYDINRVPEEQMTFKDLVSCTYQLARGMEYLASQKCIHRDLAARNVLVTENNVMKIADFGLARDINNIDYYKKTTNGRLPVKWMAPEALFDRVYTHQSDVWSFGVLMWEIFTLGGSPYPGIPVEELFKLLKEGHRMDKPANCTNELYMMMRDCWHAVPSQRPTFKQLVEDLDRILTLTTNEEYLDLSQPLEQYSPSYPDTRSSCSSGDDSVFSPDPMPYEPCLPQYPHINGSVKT
FGFR4, sequence (P22455 22-802): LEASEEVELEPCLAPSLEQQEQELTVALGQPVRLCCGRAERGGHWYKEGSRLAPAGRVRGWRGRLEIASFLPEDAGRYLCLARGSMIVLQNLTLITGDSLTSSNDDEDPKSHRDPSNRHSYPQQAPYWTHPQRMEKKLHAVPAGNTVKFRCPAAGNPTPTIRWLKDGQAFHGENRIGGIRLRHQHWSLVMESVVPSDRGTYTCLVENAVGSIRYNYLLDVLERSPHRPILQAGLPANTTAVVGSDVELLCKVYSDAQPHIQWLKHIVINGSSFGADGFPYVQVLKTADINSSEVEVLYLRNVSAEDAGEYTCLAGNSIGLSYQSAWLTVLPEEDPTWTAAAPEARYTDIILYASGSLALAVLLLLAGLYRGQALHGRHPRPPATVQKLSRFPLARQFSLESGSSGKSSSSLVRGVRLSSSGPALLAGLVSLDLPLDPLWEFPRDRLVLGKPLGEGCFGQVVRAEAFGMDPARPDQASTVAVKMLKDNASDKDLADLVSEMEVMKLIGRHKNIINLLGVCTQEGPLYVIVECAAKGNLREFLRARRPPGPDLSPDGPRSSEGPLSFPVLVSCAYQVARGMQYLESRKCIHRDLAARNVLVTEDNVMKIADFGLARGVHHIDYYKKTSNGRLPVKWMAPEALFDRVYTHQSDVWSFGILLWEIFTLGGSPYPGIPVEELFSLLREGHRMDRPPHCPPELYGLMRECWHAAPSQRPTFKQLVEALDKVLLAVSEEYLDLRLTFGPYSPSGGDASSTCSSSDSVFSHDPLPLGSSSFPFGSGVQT
FGFR3 (V555M), sequence (P22607 23-806 V555M): as the sequence (P22607 23-806 limits assumed, change not shown) above, with V533M counted along it

Turning to `C[C@@H](Oc1ccc2[nH]nc(-c3ccc(N4CCS(=O)(=O)CC4)nc3)c2c1)c1c(Cl)cncc1Cl` [Example 1, 4-[5-[5-[(1R)-1-(3,5-dichloro-4-pyridyl)ethoxy]-1H-indazol-3-yl]-2-pyridyl]-1,4-thiazinane 1,1-dioxide], the “Ba/F3 FGFR1/FGFR3 Selectivity” value in assay [1] was 33. Further, the IC50 was in the range of 1 to 20 nM in [1]; 1 to 20 nM in [2]; 1 to 20 nM in assay [3]; 100 to 300 nM in assay [4]; 100 to 300 nM on FGFR1-BCR Ba/F3 cells. Besides, the Kd at FGFR1, at FGFR3 (V555M), at FGFR3, on FGFR2 and at FGFR4 was 1 to 20 nM in each case.

With `C[C@@H](Oc1ccc2[nH]nc(-c3ccc(N4CCNCC4)nc3)c2c1)c1c(Cl)cncc1Cl` [Example 2, (R)-5-(1-(3,5-Dichloropyridin-4-yl)ethoxy)-3-(6-(piperazin-1-yl)pyridin-3-yl)-1H-indazole dihydrochloride], in [1], the “Ba/F3 FGFR1/FGFR3 Selectivity” value amounted to 15. The results for the IC50 (in [1]; in [2]; on FGFR1-BCR Ba/F3 cells) were 1 to 20 nM, 1 to 20 nM and 100 to 300 nM, respectively. Moreover, the Kd on FGFR1, on FGFR3 (V555M), on FGFR3, on FGFR2 and at FGFR4 was 1 to 20 nM each time.

`C[C@@H](Oc1ccc2[nH]nc(-c3ccc(N4CCN(C(=O)N5CCOCC5)CC4)nc3)c2c1)c1c(Cl)cncc1Cl` [Example 3, [4-[5-[5-[(1R)-1-(3,5-dichloro-4-pyridyl)ethoxy]-1H-indazol-3-yl]-2-pyridyl]piperazin-1-yl]-morpholino-methanone]: in [1], the “Ba/F3 FGFR1/FGFR3 Selectivity” value is 18. Moreover, the IC50 in [1] was 1 to 20 nM; in [2], 1 to 20 nM; in [3] it was 1 to 20 nM; in [4], 20 to 100 nM; at FGFR1-BCR Ba/F3 cells it was 20 to 100 nM. Moreover, the Kd at FGFR1, on FGFR3 (V555M), on FGFR3, at FGFR2 and at FGFR4 was 1 to 20 nM each time.

Take `C[C@@H](Oc1ccc2[nH]nc(-c3cnc(N4CCC5(CCS(=O)(=O)C5)C4)nc3)c2c1)c1c(Cl)cncc1Cl` (stereo partly drawn) [Example 127, 7-[5-[5-[(1R)-1-(3,5-dichloro-4-pyridyl)ethoxy]-1H-indazol-3-yl]pyrimidin-2-yl]-2λ^6-thia-7-azaspiro[4.4]nonane 2,2-dioxide]: in assay [1], the “Ba/F3 FGFR1/FGFR3 Selectivity” value was 11. The IC50 in [1] is 1 to 20 nM; in assay [3], 20 to 100 nM; in [4], 100 to 300 nM; on FGFR1-BCR Ba/F3 cells it was 100 to 300 nM. Further, the Kd lay within 20 to 100 nM on FGFR1; 1 to 20 nM at FGFR3 (V555M); 1 to 20 nM on FGFR3; 20 to 100 nM on FGFR2; 1 to 20 nM on FGFR4.

Regarding `C[C@@H](Oc1ccc2[nH]nc(-c3cnc(N4CC5(CCN(S(C)(=O)=O)C5)C4)nc3)c2c1)c1c(Cl)cncc1Cl` [Example 157, 5-[(1R)-1-(3,5-dichloro-4-pyridyl)ethoxy]-3-[2-(7-methylsulfonyl-2,7-diazaspiro[3.4]octan-2-yl)pyrimidin-5-yl]-1H-indazole], the “Ba/F3 FGFR1/FGFR3 Selectivity” value in assay [1] was found to be 7. In addition, the IC50 in assay [1] was 1 to 20 nM; in assay [2], 100 to 300 nM; in [3] it was 20 to 100 nM; at FGFR1-BCR Ba/F3 cells, 100 to 300 nM. Also, the Kd at FGFR1 fell in the range of 20 to 100 nM; at FGFR3 (V555M), 1 to 20 nM; at FGFR3, 1 to 20 nM; at FGFR2, 20 to 100 nM; at FGFR4, 1 to 20 nM.
